Consider 10 compounds from PMC2187893 (The Journal of Experimental Medicine, 1990).

Holding throughout (format): cell-based
For test [1], the system named is human peripheral blood T lymphocytes. As to the kind of experiment: T cell migration assay in microchemotaxis chamber. The note with it: peptides at 10 -5 M in lower wells, 1.5 h at 37C, Fig. 3; Dunnett's test.
For test [2] the test system is unchanged. Nature of the test: Migration assay with or without concentration gradient.
For test [3], the system named is human peripheral blood T cells. Nature of the test: Naloxone inhibition of T cell migration to stimuli. The following applies: for Specific migration with naloxone / Specific migration without naloxone: spontaneous locomotion subtracted; for Effect of naloxone on specific migration (percent response): naloxone-treated/nontreated x 100%.
The mark [4] stands for this setting: doses between 10-13 and 10^-9 M, migration only when a gradient existed.
Setting [5] is: donor 4, stimulus at 10^-9 M, naloxone 10^-5 M.
[6] abbreviates: donor 5, stimulus at 10^-5 M, naloxone 10^-5 M.

[D-Ser2Leu']- enkephalin Thb [DSLET]: the “T cell migration response compared with spontaneous locomotion” value in test [1] is on record as “greater then spon- taneous locomotion”.

Consider “[n-Ala-2,N-Me-Phe4Met(o)4-01]-enkephalin [FK 33-824]”, for which, in test [1], the “T cell migration response compared with spontaneous locomotion” value is “greater then spon- taneous locomotion”.

For the compound “[o-Ala2 ,MePhe4,Gly(ol)'j-enkephalin [DAGO]”, the “T cell migration response compared with spontaneous locomotion” value in test [1] was “greater then spon- taneous locomotion”.

On to “Tyr-Gly-Gly-Phe-Met [MET-ENK, methionine-enkephalin]”, for which, in test [2] (setting [4]), the “type of locomotion stimulated” value is recorded as “chemotactic”. Moreover, the “Specific migration with naloxone” value in test [3] (donor 4, stimulus at 10- " M, naloxone 10^-5 M) is listed as 2; in test [3] (setting [5]) it was 335; in test [3] (setting [6]), 768. Further, the “Specific migration without naloxone” value is given as 830 in test [3] (donor 4, stimulus at 10- " M) and 3,093 in test [3] (donor 5, stimulus at 10^-5 M). Besides, the “Effect of naloxone on specific migration (percent response)” value in test [3] (setting [5]) is 12.8%; in test [3] (setting [6]), 24.8%.

For the compound H-Gly-Gly-Phe-Leu-OH [DesTyr-LEU-ENK], the “T cell migration response compared with spontaneous locomotion” value in test [1] is reported as “no effect on T cell migration”.

“cyclic [p-Pen2,n-Pen']-enkephalin [DPDPE]”: in test [1], the “T cell migration response compared with spontaneous locomotion” value was “greater then spon- taneous locomotion”.

As for `C=CCN1CC[C@]23c4c5ccc(O)c4O[C@H]2C(=O)CC[C@@]3(O)[C@H]1C5` [naloxone, Naloxone], the “effect of naloxone on locomotion caused by IL-2” value in test [3] (naloxone 10^-5 M, cells pretreated 15 h at 37C, IL-2 100 U/ml, Table 1) is reported as “no effect”. Further, in test [3] (naloxone 10^-5 M, cells pretreated 15 h at 37C, Table 1), the “effect of naloxone on T cell migration in response to MET-ENK or LEU-ENK” value is “inhibited”.

On to (D-Ala2, o- Leu']-enkephalin [DADLE], for which, in test [1], the “T cell migration response compared with spontaneous locomotion” value was “greater then spon- taneous locomotion”.

Turning to “/3-END: purified human beta-endorphin from Calbiochem-Behring Corp.; endogenous opioid neurohormone (YGGFMTSEKSQTPLVTLFKNAIIKNAYKKGE; Beta-endorphin; UniProt P01189 237-267, looked up)”, the “T cell migration without gradient (stimulus in upper and lower chambers)” value in test [2] (10-9, 10^-7 and 10^-5 M, single donor, Fig. 2, p >0.05, NS) was “equivalent to the spontaneous locomotion”. Also, in test [2] (beta-END, Fig. 2, 10^-9 to 10^-5 M), the “type of locomotion stimulated” value is “chemotactic”.

As to “Tyr-Gly-Gly-Phe-Leu [LEU-ENK, leucine-enkephalin]”, the “type of locomotion stimulated” value in test [2] (setting [4]) is “chemotactic”. Besides, in test [1], the “T cell migration response compared with spontaneous locomotion” value is given as “stimulatory”. Also, in test [3] (setting [6]), the “Effect of naloxone on specific migration (percent response)” value is on record as 18.4% and the “Specific migration with naloxone” value stood at 582. For the same compound, the “Specific migration without naloxone” value in test [3] (donor 5, stimulus at 10^-5 M) was 3,171.
